Data published in patent US12421282B2, “Compositions and methods for the treatment of metabolic and liver disorders” (priority 2021, dated 2025).
Like-named read-outs stand apart in the source and are kept apart here. *1 amine or outer side, *2 acyl side, *3 side chain or, on linkers, in order; H or OH if unused. Where a SMILES comes first, the peptide text is derived from it. Side-chain parts run from the residue outwards. [ ]: non-standard residue; d: D form. The star is where a group is joined. Nonadecanoyl(19-PO3H2) = O=C(CCCCCCCCCCCCCCCCCCP(=O)(O)O)*; γGlu = O=C(O)[C@H](CCC(=O)[*:2])N[*:1]; AEEA = NCCOCCOCC(=O)O; Aib = CC(C)(N)C(=O)O

How the values were obtained:
[1] = parameters: species or system cynomolgus monkeys; conditions: cynomolgus monkey, in vivo, sc, 0.2 mg/kg
Protocol: Subcutaneous (SC) dosing of the compounds in a vehicle of 0.1% bovine serum albumin in phosphate buffered saline solution was performed with male cynomolgus monkeys. […] Samples were obtained at 1, 4, 8, 12, 24, 48, 72, 96, 120, 168, 192, 240 and 336 hours after the single dose was administered.

[2] = target: T1, human recombinant GIP receptor (Homo sapiens, UniProt P48546); assay: TagLite binding assay, GIP receptor, without and with 2% HSA
T1 sequence (P48546 22-466): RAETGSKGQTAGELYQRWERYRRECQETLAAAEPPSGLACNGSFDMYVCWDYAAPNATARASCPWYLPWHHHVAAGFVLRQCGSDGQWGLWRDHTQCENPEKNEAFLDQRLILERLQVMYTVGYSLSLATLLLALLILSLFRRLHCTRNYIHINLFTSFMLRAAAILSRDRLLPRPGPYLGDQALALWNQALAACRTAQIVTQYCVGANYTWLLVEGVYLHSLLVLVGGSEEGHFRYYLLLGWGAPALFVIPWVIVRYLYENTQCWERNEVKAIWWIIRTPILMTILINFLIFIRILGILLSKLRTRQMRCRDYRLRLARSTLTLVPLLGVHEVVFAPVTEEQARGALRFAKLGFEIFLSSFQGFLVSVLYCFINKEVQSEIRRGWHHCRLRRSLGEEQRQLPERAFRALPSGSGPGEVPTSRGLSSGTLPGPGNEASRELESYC
From the text: (§1) Binding data for Compounds 15-25, for two human recombinant G protein coupled receptors, GLP-1 and GIP, was obtained using […]® binding assay and Epics Therapeutics cell lines. The binding assay was repeated in the presence of 2% human serum albumin (HSA). Compounds 16, 21, and 22 have an HSA ratio for the GLP-1 receptor of 7.1, 7.6, and 7.8, respectively. Compounds 15, 18, and 23 have an HSA ratio for the GIP receptor of 7.3, 4.3, and 6.4, respectively. A lower HSA ratio indicates greater binding affinity for the receptor than for albumin when compared to a compound with a greater HSA ratio.

[3] = target: human recombinant GLP-1 receptor (Homo sapiens, UniProt P43220); assay: TagLite binding assay, GLP-1 receptor, without and with 2% HSA
From the text: as §1

[4] = 2% human serum albumin, read-out: GIP receptor IC50 2% HSA
[5] = no HSA, read-out: GIP receptor IC50 No HSA
[6] = 2% human serum albumin, read-out: GLP-1 receptor IC50 2% HSA
[7] = no HSA, read-out: GLP-1 receptor IC50 No HSA

human recombinant GLP-1 receptor, sequence (P43220 24-463): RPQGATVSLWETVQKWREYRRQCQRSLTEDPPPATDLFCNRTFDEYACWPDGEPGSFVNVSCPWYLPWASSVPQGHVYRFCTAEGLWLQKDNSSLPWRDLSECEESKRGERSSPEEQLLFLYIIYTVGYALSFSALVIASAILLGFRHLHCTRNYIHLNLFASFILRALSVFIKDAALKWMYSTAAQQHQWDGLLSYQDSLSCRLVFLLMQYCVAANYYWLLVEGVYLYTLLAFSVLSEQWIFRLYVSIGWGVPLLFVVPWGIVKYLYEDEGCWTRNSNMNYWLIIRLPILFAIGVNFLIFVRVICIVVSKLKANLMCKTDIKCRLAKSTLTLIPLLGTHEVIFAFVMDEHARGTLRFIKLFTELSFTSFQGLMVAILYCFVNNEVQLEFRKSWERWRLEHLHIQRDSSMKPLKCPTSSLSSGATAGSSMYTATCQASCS

Structure (SMILES) | AUC(0-inf) [1] | AUC(0-t) [1] | Cmax [1] | Tmax [1] | half-life [1] | mean half life longer compared to tirzepatide [1] | IC50 [2, 4] | IC50 [2, 5] | IC50 [3, 6] | IC50 [3, 7]
CC[C@H](C)[C@H](NC(=O)[C@H](CCCCN)NC(=O)[C@H](CC(=O)O)NC(=O)[C@H](CC(C)C)NC(=O)[C@H](Cc1ccccc1)NC(=O)[C@@H](NC(=O)[C@H](CO)NC(=O)[C@H](Cc1ccc(O)cc1)NC(=O)[C@H](CC(=O)O)NC(=O)[C@H](CO)NC(=O)[C@@H](NC(=O)[C@H](Cc1ccccc1)NC(=O)[C@@H](NC(=O)CNC(=O)[C@H](CCC(=O)O)NC(=O)C(C)(C)NC(=O)[C@@H](N)Cc1ccc(O)cc1)[C@@H](C)O)[C@@H](C)O)[C@@H](C)CC)C(=O)N[C@@H](C)C(=O)N[C@@H](CCC(N)=O)C(=O)N[C@@H](CCCCNC(=O)COCCOCCNC(=O)COCCOCCNC(=O)CC[C@H](NC(=O)CCCCCCCCCCCCCCCCCCP(=O)(O)O)C(=O)O)C(=O)N[C@@H](C)C(=O)N[C@@H](Cc1ccccc1)C(=O)N[C@H](C(=O)N[C@@H](CC(N)=O)C(=O)N[C@@H](Cc1c[nH]c2ccccc12)C(=O)N[C@@H](CC(C)C)C(=O)N[C@H](C(=O)N[C@@H](C)C(=O)NCC(=O)NCC(=O)N1CCC[C@H]1C(=O)N[C@@H](CO)C(=O)N[C@@H](CO)C(=O)NCC(=O)N[C@@H](C)C(=O)N1CCC[C@H]1C(=O)N1CCC[C@H]1C(=O)N1CCC[C@H]1C(=O)N[C@@H](CO)C(N)=O)[C@@H](C)CC)C(C)C [Compound 21] (H-Y[Aib]EGTFTSDYSIFLDKIAQK([AEEA-AEEA-γGlu-Nonadecanoyl(19-PO3H2)])AFVNWLIAGGPSSGAPPPS-NH2) | 54 µg·h/mL | 49.4 µg·h/mL | 339 ng/mL | 48 h | 90.5 h | at least 50% | 5280 nM | 561 nM | 1100 nM | 144 nM
CC[C@H](C)[C@H](NC(=O)[C@H](CC(C)C)NC(=O)[C@H](Cc1c[nH]c2ccccc12)NC(=O)[C@H](CCC(N)=O)NC(=O)[C@@H](NC(=O)[C@H](Cc1ccccc1)NC(=O)[C@H](C)NC(=O)[C@H](CCCCNC(=O)COCCOCCNC(=O)COCCOCCNC(=O)CC[C@H](NC(=O)CCCCCCCCCCCCCCCCCCP(=O)(O)O)C(=O)O)NC(=O)[C@H](CCC(N)=O)NC(=O)[C@H](CO)NC(=O)[C@@H](NC(=O)[C@H](CCCCN)NC(=O)[C@H](CC(=O)O)NC(=O)[C@H](CC(C)C)NC(=O)C(C)(C)NC(=O)[C@@H](NC(=O)[C@H](CO)NC(=O)[C@H](Cc1ccc(O)cc1)NC(=O)[C@H](CC(=O)O)NC(=O)[C@H](CO)NC(=O)[C@@H](NC(=O)[C@H](Cc1ccccc1)NC(=O)[C@@H](NC(=O)CNC(=O)[C@H](CCC(=O)O)NC(=O)C(C)(C)NC(=O)[C@@H](N)Cc1ccc(O)cc1)[C@@H](C)O)[C@@H](C)O)[C@@H](C)CC)[C@@H](C)CC)C(C)C)C(=O)N[C@@H](C)C(=O)NCC(=O)NCC(=O)N1CCC[C@H]1C(=O)N[C@@H](CO)C(=O)N[C@@H](CO)C(=O)NCC(=O)N[C@@H](C)C(=O)N1CCC[C@H]1C(=O)N1CCC[C@H]1C(=O)N1CCC[C@H]1C(=O)N[C@@H](CO)C(N)=O [Compound 24] (H-Y[Aib]EGTFTSDYSI[Aib]LDKISQK([AEEA-AEEA-γGlu-Nonadecanoyl(19-PO3H2)])AFVQWLIAGGPSSGAPPPS-NH2) | 348 µg·h/mL | 302 µg·h/mL | 2130 ng/mL | 22.7 h | 111 h | at least 50% | 11400 nM | 1160 nM | 6830 nM | 686 nM
